Assays:
Assay type in all cases: binding
[1] = tested on: human monoclonal antibody CRJB
[2] = tested on: human monoclonal antibody CRJA
[3] = tested on: human monoclonal antibody CRJA; remark: listed apart in the source
[4] = tested on: human monoclonal antibody CRJB; remark: listed apart in the source
[5] = tested on: human monoclonal antibody CR57
[6] = tested on: human monoclonal antibody CR57; remark: listed apart in the source

| Sequence | Binding of CRJB (10 μg/ml) to looped/cyclic peptide (PEPSCAN-ELISA signal) [1] | Binding of CRJA to linear peptide (PEPSCAN-ELISA signal) [2] | Binding of CRJA (10 μg/ml) to looped/cyclic peptide (PEPSCAN-ELISA signal) [3] | Binding of CRJB to linear peptide (PEPSCAN-ELISA signal) [4] | Binding of CR57 (10 μg/ml) to looped/cyclic peptide (PEPSCAN-ELISA signal) [5] | Binding of CR57 to linear peptide (PEPSCAN-ELISA signal) [6] | Binding of CRJB (10 μg/ml) to looped/cyclic peptide (PEPSCAN-ELISA) [1] | Binding of CRJA (10 μg/ml) to looped/cyclic peptide (PEPSCAN-ELISA) [3] | Binding of CR57 (10 μg/ml) to looped/cyclic peptide (PEPSCAN-ELISA) [5] | Binding of CRJB to looped/cyclic peptide (PEPSCAN-ELISA signal) [1] | Binding of human monoclonal antibody CRJA to linear peptide (PEPSCAN-ELISA signal) [2] | Binding of CRJA to looped/cyclic peptide (PEPSCAN-ELISA signal) [3] | Binding of human monoclonal antibody CRJB to linear peptide (PEPSCAN-ELISA signal) [4] | Binding of CR57 to looped/cyclic peptide (PEPSCAN-ELISA signal) [5] | Binding of human monoclonal antibody CR57 to linear peptide (PEPSCAN-ELISA signal) [6] |
| --- | --- | --- | --- | --- | --- | --- | --- | --- | --- | --- | --- | --- | --- | --- | --- |
| GMSCDIFTNSRGKRA | 78 | 71 | 51 | 120 | 79 | 54 | – | – | – | – | – | – | – | – | – |
| IFTNSRGKRASKGSE | 75 | 97 | 88 | 125 | 85 | 77 | – | – | – | – | – | – | – | – | – |
| GKAYTIFNKTLMEAD | – | 100 | – | 127 | – | 76 | 100 | 107 | 114 | – | – | – | – | – | – |
| PNNLVVEDEGCTNLS | 60 | 86 | 96 | 107 | 100 | 78 | – | – | – | – | – | – | – | – | – |
| NLSGFSYMELKVGYI | 83 | 94 | 90 | 115 | 68 | 61 | – | – | – | – | – | – | – | – | – |
| VHNQVSGVDLGLPNW | – | – | – | – | – | – | – | – | – | 106 | 120 | 106 | 119 | 125 | 100 |
| VFFNGIILGPDGNVL | – | 82 | – | 132 | – | 55 | 93 | 83 | 110 | – | – | – | – | – | – |
| NSRGKRASKGSETCG | 60 | 63 | 71 | 100 | 107 | 92 | – | – | – | – | – | – | – | – | – |
| FKRKHFRPTPDACRA | 72 | 86 | 86 | 92 | 148 | 64 | – | – | – | – | – | – | – | – | – |
| PSTVFKDGDEAEDFV | – | – | – | – | – | – | – | – | – | 101 | 105 | 113 | 143 | 118 | 104 |
| RSDEIEHLVVEELVR | – | 93 | – | 138 | – | 100 | 93 | 107 | 136 | – | – | – | – | – | – |
| CLRVGGRCHPHVNGV | – | 103 | – | 132 | – | 102 | 104 | 111 | 101 | – | – | – | – | – | – |
